Assays:
[1] = tested on: IL-6; assay: IL-6 secretion assay in human PBMCs (LPS-stimulated, ELISA); assay type: cell-based; settings: PBMC, LPS 100 ng/mL 6 hr, read-out: IL6 inhibitory activity IC50
Experimental: (§1) Fetal bovine serum (FBS) was obtained from ThermoFisher (Cat #16000044). • Other reagents: 96well TC plates were obtained from ThermoFisher (Cat #07-2000-90). LPS was obtained from Sigma (Cat #L3024).
(§2) IL-6 was assessed using a standard ELISA protocol. Cryopreserved PBMCs were thawed in a water bath and transferred to 50 mL polypropylene tubes. The cells were washed two times with 25 mL of RPMI medium supplemented with 5% of heat-inactivated FBS and re-suspended at a density of 4.5^10^6 cells/mL. The cells were plated into 96 well TC late (100 uL/well). Serially diluted compound was added to the cells in duplicate wells for each concentration. Control wells received DMSO only (0.3% final). The cells were pre-incubated with compound for 1 hr. After pre-incubation, the cells were stimulated by LPS (100 ng/mL) for 6 hr. Control samples with and without LPS in the absence of compound were assembled in each test plate. IL-6 was detected in media supernatants by using a sandwich anti-IL-6 ELISA kit (BD Biosciences) according to protocol provided by the manufacturer. ELISA readout (optical density at 450 nm) is commensurable with the amount of IL-6 produced by the cells. Assay window was determined in each experiment by comparing average OD450 values in stimulated and un-stimulated samples in the absence of compound. ELISA calibration was performed in each detection plate using serially diluted recombinant human IL-6, to ensure that OD450 values for all test samples were within linear range of detection.%-Inhibition by compound was calculated using following equation:
(§3) [formula] • where OD450100% is optical density in control samples stimulated with LPS without compound, OD4500% is optical density in unstimulated control samples, and OD450compound is optical density in a sample stimulated with LPS in the presence of compound.
(§4) The calculated %-Inh values were plotted against compound concentration. To determine IC50 values, dose-response curves were fitted by a 4-parameter sigmoid inhibition model using XLFit® software (IDBS).

[2] = tested on: TNFα; assay: TNFa secretion assay in human PBMCs (LPS-stimulated, ELISA); assay type: cell-based; settings: PBMC, LPS 100 ng/mL 6 hr, read-out: TNF inhibitory activity IC50
Experimental: as §1
as §2, with “TNF-alpha was” for “IL-6 was”, “plate. TNFa” for “plate. IL-6”, “sandwich anti-TNFα” for “sandwich anti-IL-6”, “of TNFα” for “of IL-6”, “human TNFα,” for “human IL-6,”
as §3, §4

[3] = tested on: IFN gamma; assay: IFN gamma secretion assay in human PBMCs (PHA-M-stimulated, ELISA); assay type: cell-based; settings: PBMC, PHA-M 10 ug/mL 40 hr, read-out: IFNγ inhibitory activity IC50
Experimental: Fetal bovine serum (FBS) was obtained from ThermoFisher (Cat #16000044). • Other reagents: 96well TC plates were obtained from ThermoFisher (Cat #07-2000-90).
IFN-gamma was assessed using a standard ELISA protocol. Cryopreserved PBMCs were thawed in a water bath and transferred to 50 mL polypropylene tubes. The cells were washed two times with 25 mL of RPMI medium supplemented with 5% of regular FBS and re-suspended at a density of 1.5^10^6 cells/mL. The cells were plated into 96 well TC late (100 uL/well). Serially diluted compound was added to the cells in duplicate wells for each concentration. Control wells received DMSO only (0.3% final). The cells were pre-incubated with compound for 2 hr. After pre-incubation, the cells were stimulated by PHA-M (10 ug/mL) for 40 hr. Control samples with and without PHA-M in the absence of compound were assembled in each test plate. IFNg was detected in media supernatants by using a sandwich anti-IFNg ELISA kit (BD Biosciences) according to protocol provided by the manufacturer. ELISA readout (optical density at 450 nm) is commensurable with the amount of IFNg produced by the cells. Assay window was determined in each experiment by comparing average OD450 values in stimulated and un-stimulated samples in the absence of compound. ELISA calibration was performed in each detection plate using serially diluted recombinant human IFN gamma, to ensure that OD450 values for all test samples were within linear range of detection.%-Inhibition by compound was calculated using following equation:
[formula] • where OD450100% is optical density in control samples stimulated with PHA-M without compound, OD4500% is optical density in unstimulated control samples, and OD450compound is optical density in a sample stimulated with PHA-M in the presence of compound.
as §4

[4] = tested on: IL-1β; assay: Inhibitory activity on IL-1β

| SMILES | IC50 [1] [µM] | IC50 [2] [µM] | IC50 [3] [µM] | IC50 [4] [µM] |
| --- | --- | --- | --- | --- |
| CCCCCC1=CC(=O)C2=C(OC(C)(CCC=C(C)C)C=C2)C1=O (centres unmarked) [Formula II] | 1.2 | 0.93 | 0.39 | 1.72 |
| CCCCCc1cc(OC(C)=O)c2c(c1OC(C)=O)OC(C)(CCC=C(C)C)C=C2 (centres unmarked) [Formula XXIII] | 8.7 | 9.95 | 0.48 | 0.97 |
| CCCCCc1cc(O)c2c(c1O)OC(C)(CCC=C(C)C)C=C2 (centres unmarked) [Formula XXII] | > 10 | 9.2 | 1.97 | 3.3 |
| CCCCCc1cc(OC)c2c(c1OC)OC(C)(CCC=C(C)C)C=C2 (centres unmarked) [Formula XXIV] | 14.4 | 10.6 | 4.2 | > 10 |
| CCCCCC1=C(NCC)C(=O)C2=C(OC(C)(CCC=C(C)C)C=C2)C1=O (centres unmarked) [Formula XXVIII] | > 10 | > 10 | > 10 | > 10 |
| CC(C)=CCCC1(C)C=CC2=C(O1)C(=O)c1ccccc1C2=O (centres unmarked) [Formula XXVII] | > 10 | > 10 | > 10 | > 10 |
| CCCCCC1=CC(=O)C2=C(O[C@](C)(CCC=C(C)C)C=C2)C1=O [Formula XXVI] | 1.07 | 0.62 | 0.31 | 0.54 |
| CCCCCC1=C(NCCC)C(=O)C2=C(OC(C)(CCC=C(C)C)C=C2)C1=O (centres unmarked) [Formula XXV] | 9.3 | 9 | > 10 | > 10 |
